# Source: ChEMBL document CHEMBL1201861, “Genomics of Drug Sensitity in Cancer screening data, Wellcome Trust Sanger Institute”
# pIC50: −log10 of the molar value.
# What was measured:
# Test in all cases: cells
# LAMA-84 = type: functional, cell-based; settings: Homo sapiens;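 further: growth inhibition of LAMA-84 cells, read out with a cell viability assay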
# Description: SANGER: Inhibition of human LAMA-84 cell growth in a cell viability assay.
# AM-38 = type: functional, cell-based, Homo sapiens; settings: Homo sapiens, AM-38;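 further: growth inhibition of AM-38 cells of human origin, read out by a cell viability assay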
# Description: SANGER: Inhibition of human AM-38 cell growth in a cell viability assay.
# NCI-H2122 = type: functional, cell-based, Homo sapiens; settings: Homo sapiens, NCI-H2122;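 further: growth inhibition of the cells, read out with a cell viability assay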
# Description: SANGER: Inhibition of human NCI-H2122 cell growth in a cell viability assay.
# MKN-28 = type: functional, cell-based, Homo sapiens; settings: Homo sapiens, MKN-28;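 further: cell viability assay read-out, IC50 reflects suppression of growth of human MKN-28 cells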
# Description: SANGER: Inhibition of human MKN28 cell growth in a cell viability assay.
# DMS-114 = type: functional, cell-based, Homo sapiens; settings: Homo sapiens, DMS-114
# NCI-H2347 = type: functional, cell-based, Homo sapiens; settings: Homo sapiens, NCI-H2347;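 further: growth inhibition of the cell line, read out with a cell viability assay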
# Description: SANGER: Inhibition of human NCI-H2347 cell growth in a cell viability assay.
# EW-3 = type: functional, cell-based; settings: Homo sapiens;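 further: cell viability assay read-out, IC50 reflects inhibition of growth of the EW-3 cells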
# Description: SANGER: Inhibition of human EW-3 cell growth in a cell viability assay.
# UMC-11 = type: functional, cell-based, Homo sapiens; settings: Homo sapiens, UMC-11;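 further: growth inhibition of UMC-11 cells, read out with a cell viability assay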
# Description: SANGER: Inhibition of human UMC-11 cell growth in a cell viability assay.
# OVCAR-8 = type: functional, cell-based, Homo sapiens; settings: Homo sapiens, OVCAR-8;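 further: growth inhibition of human OVCAR-8 cells, read out by a cell viability assay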
# Description: SANGER: Inhibition of human OVCAR-8 cell growth in a cell viability assay.
# DoTc2-4510 = type: functional, cell-based, Homo sapiens; settings: Homo sapiens, DoTc2-4510
# KYSE-150 cell line = type: functional, cell-based, Homo sapiens; settings: Homo sapiens, KYSE-150;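 further: growth inhibition of human KYSE-150 cells, read out with a cell viability assay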
# Description: SANGER: Inhibition of human KYSE-150 cell growth in a cell viability assay.
# SNU-387 = type: functional, cell-based, Homo sapiens; settings: Homo sapiens, SNU-387
# Description: SANGER: Inhibition of human SNU-387 cell growth in a cell viability assay.
# COR-L105 = type: functional, cell-based, Homo sapiens; settings: Homo sapiens, COR-L105;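 further: cell growth inhibition determined with a viability assay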
# Description: SANGER: Inhibition of human COR-L105 cell growth in a cell viability assay.
# HuTu80 = type: functional, cell-based, Homo sapiens, HUTU-80; settings: Homo sapiens, HuTu80;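 further: growth inhibition of HuTu80 human cells, determined with a cell viability readout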
# Description: SANGER: Inhibition of human HUTU-80 cell growth in a cell viability assay.
# A673 = type: functional, cell-based, Homo sapiens; settings: Homo sapiens, A673;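 further: growth inhibition of human A673 cells, read out through a cell viability assay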
# Description: SANGER: Inhibition of human A673 cell growth in a cell viability assay.
# NCI-H1792 = type: functional, cell-based, Homo sapiens; settings: Homo sapiens, NCI-H1792;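 further: growth inhibition of human NCI-H1792 cells, read out as cell viability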
# Description: SANGER: Inhibition of human NCI-H1792 cell growth in a cell viability assay.
# NCI-H446 = type: functional, cell-based; settings: Homo sapiens;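 further: growth inhibition of NCI-H446 cells determined by a cell viability assay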
# Description: SANGER: Inhibition of human NCI-H446 cell growth in a cell viability assay.
# KURAMOCHI = type: functional, cell-based; settings: Homo sapiens;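 further: growth inhibition of KURAMOCHI cells, read out with a cell viability assay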
# Description: SANGER: Inhibition of human KURAMOCHI cell growth in a cell viability assay.
# NCI-H1299 = type: functional, cell-based, Homo sapiens; settings: Homo sapiens, NCI-H1299;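 further: growth inhibition of human NCI-H1299 cells, read out by a cell viability assay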
# Description: SANGER: Inhibition of human NCI-H1299 cell growth in a cell viability assay.
# HCC1806 = type: functional, cell-based, Homo sapiens; settings: Homo sapiens, HCC1806;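 further: growth inhibition of the cancer cell line, determined with a cell viability assay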
# Description: SANGER: Inhibition of human HCC1806 cell growth in a cell viability assay.
# A2058 = type: functional, cell-based; settings: Homo sapiens;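 further: reduction of A2058 cell growth, read out with a viability assay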
# Description: SANGER: Inhibition of human A2058 cell growth in a cell viability assay.
# HCC1954 = type: functional, cell-based, Homo sapiens; settings: Homo sapiens, HCC1954;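 further: growth inhibition of human HCC1954 cells, read out with a cell viability assay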
# Description: SANGER: Inhibition of human HCC1954 cell growth in a cell viability assay.
# COLO-800 = type: functional, cell-based, Homo sapiens; settings: Homo sapiens, COLO-800;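 further: growth inhibition of COLO-800 cells, read out with a cell viability assay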
# Description: SANGER: Inhibition of human COLO-800 cell growth in a cell viability assay.
# A-375 = type: functional, cell-based, Homo sapiens; settings: Homo sapiens, A-375;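 further: growth inhibition of A375 cells, read out with a cell viability assay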
# Description: SANGER: Inhibition of human A375 cell growth in a cell viability assay.
# LU-134-A = type: functional, cell-based; settings: Homo sapiens
# Description: SANGER: Inhibition of human LU-134-A cell growth in a cell viability assay.
# EW-13 = type: functional, cell-based; settings: Homo sapiens;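 further: growth inhibition of EW-13 cells, read out with a cell viability assay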
# Description: SANGER: Inhibition of human EW-13 cell growth in a cell viability assay.
# KY821 = type: functional, cell-based; settings: Homo sapiens;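 further: growth inhibition of human KY821 cells, read out by a cell viability assay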
# Description: SANGER: Inhibition of human KY821 cell growth in a cell viability assay.
# AN3-CA = type: functional, cell-based; settings: Homo sapiens;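 further: growth inhibition of human AN3-CA cells measured by a cell viability assay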
# Description: SANGER: Inhibition of human AN3-CA cell growth in a cell viability assay.
# ES8 = type: functional, cell-based, Homo sapiens; settings: Homo sapiens, ES8;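 further: growth inhibition of human ES8 cells, read out with a cell viability assay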
# Description: SANGER: Inhibition of human ES8 cell growth in a cell viability assay.
# GT3TKB = type: functional, cell-based, Homo sapiens; settings: Homo sapiens, GT3TKB;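 further: growth inhibition of the cell line, read out with a cell viability assay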
# Description: SANGER: Inhibition of human GT3TKB cell growth in a cell viability assay.
# EC-GI-10 = type: functional, cell-based, Homo sapiens; settings: Homo sapiens, EC-GI-10
# Description: SANGER: Inhibition of human EC-GI-10 cell growth in a cell viability assay.
# SW780 = type: functional, cell-based, Homo sapiens; settings: Homo sapiens, SW780;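 further: growth inhibition of the cells, read out with a cell viability assay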
# Description: SANGER: Inhibition of human SW780 cell growth in a cell viability assay.
# CAL-33 = type: functional, cell-based, Homo sapiens; settings: Homo sapiens, CAL-33;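 further: growth inhibition of CAL-33 cells, read out with a cell viability assay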
# Description: SANGER: Inhibition of human CAL-33 cell growth in a cell viability assay.
# SNU-449 = type: functional, cell-based, Homo sapiens; settings: Homo sapiens, SNU-449
# Description: SANGER: Inhibition of human SNU-449 cell growth in a cell viability assay.
# SJSA-1 = type: functional, cell-based, Homo sapiens; settings: Homo sapiens, SJSA-1;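 further: growth inhibition of human SJSA-1 cells, read out through a cell viability measurement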
# Description: SANGER: Inhibition of human SJSA-1 cell growth in a cell viability assay.
# Calu-3 = type: functional, cell-based, Homo sapiens; settings: Homo sapiens, Calu-3;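 further: growth inhibition of human Calu-3 cells, determined with a cell viability assay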
# Description: SANGER: Inhibition of human Calu-3 cell growth in a cell viability assay.
# CAL-39 = type: functional, cell-based, Homo sapiens; settings: Homo sapiens, CAL-39;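 further: cell viability assay measuring growth inhibition of CAL-39 cells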
# Description: SANGER: Inhibition of human CAL-39 cell growth in a cell viability assay.
# TE-5 = type: functional, cell-based, Homo sapiens; settings: Homo sapiens, TE-5;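 further: inhibition of cell growth, read out by a cell viability assay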
# Description: SANGER: Inhibition of human TE-5 cell growth in a cell viability assay.
# MCF7 = type: functional, cell-based, Homo sapiens; settings: Homo sapiens, MCF7;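 further: growth inhibition of human MCF7 cells, read out with a cell viability assay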
# Description: SANGER: Inhibition of human MCF7 cell growth in a cell viability assay.
# SW1573 = type: functional, cell-based, Homo sapiens; settings: Homo sapiens, SW1573;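 further: growth inhibition of SW1573 cells, read out with a cell viability assay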
# Description: SANGER: Inhibition of human SW1573 cell growth in a cell viability assay.
# 697 = type: functional, cell-based; settings: Homo sapiens
# Description: SANGER: Inhibition of human 697 cell growth in a cell viability assay.
# SK-N-DZ = type: functional, cell-based, Homo sapiens; settings: Homo sapiens, SK-N-DZ;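 further: growth inhibition of the cancer cell line, read out through a viability assay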
# Description: SANGER: Inhibition of human SK-N-DZ cell growth in a cell viability assay.
# TGBC24TKB = type: functional, cell-based, Homo sapiens; settings: Homo sapiens, TGBC24TKB;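 further: growth inhibition of human TGBC24TKB cells, read out with a cell viability assay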
# Description: SANGER: Inhibition of human TGBC24TKB cell growth in a cell viability assay.
# EOL1 = type: functional, cell-based; settings: Homo sapiens;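 further: growth inhibition of EoL-1 cells, read out by a cell viability assay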
# Description: SANGER: Inhibition of human EoL-1-cell cell growth in a cell viability assay.
# NCI-H1993 = type: functional, cell-based, Homo sapiens; settings: Homo sapiens, NCI-H1993;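 further: growth inhibition of the cancer cell line, assessed with a cell viability assay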
# Description: SANGER: Inhibition of human NCI-H1993 cell growth in a cell viability assay.
# C3A = type: functional, cell-based, Homo sapiens; settings: Homo sapiens, C3A;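 further: growth inhibition of C3A human cells, quantified with a cell viability readout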
# Description: SANGER: Inhibition of human C3A cell growth in a cell viability assay.
# BXPC-3 = type: functional, cell-based, Homo sapiens; settings: Homo sapiens, BXPC-3;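 further: growth inhibition of human BxPC-3 cells, read out by a cell viability assay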
# Description: SANGER: Inhibition of human BxPC-3 cell growth in a cell viability assay.
# HT-1376 = type: functional, cell-based, Homo sapiens; settings: Homo sapiens, HT-1376
# Description: SANGER: Inhibition of human HT-1376 cell growth in a cell viability assay.
# SW684 = type: functional, cell-based, Homo sapiens; settings: Homo sapiens, SW684;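 further: growth inhibition of human SW684 cells, measured by a cell viability assay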
# Description: SANGER: Inhibition of human SW684 cell growth in a cell viability assay.
# CAPAN-1 = type: functional, cell-based, Homo sapiens; settings: Homo sapiens, CAPAN-1;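 further: growth suppression of CAPAN-1 cells, read out by a cell viability assay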
# Description: SANGER: Inhibition of human CAPAN-1 cell growth in a cell viability assay.
# HCC2157 = type: functional, cell-based; settings: Homo sapiens;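 further: growth inhibition of the cancer cell line, read out as cell viability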
# Description: SANGER: Inhibition of human HCC2157 cell growth in a cell viability assay.
smiles,measurement,setting,value
Cc1cnc(-c2cnc(NCCNc3ccc(C#N)cn3)nc2-c2ccc(Cl)cc2Cl)[nH]1 [LADUVIGLUSIB],pIC50,LAMA-84,< 5.59
same,pIC50,AM-38,< 5.59
same,pIC50,NCI-H2122,5.64
same,pIC50,MKN-28,< 5.59
same,pIC50,DMS-114,< 5.59
same,pIC50,NCI-H2347,< 5.59
same,pIC50,EW-3,< 5.59
same,pIC50,UMC-11,< 5.59
same,pIC50,OVCAR-8,< 5.59
same,pIC50,DoTc2-4510,< 5.59
same,pIC50,KYSE-150 cell line,< 5.59
same,pIC50,SNU-387,< 5.59
same,pIC50,COR-L105,< 5.59
same,pIC50,HuTu80,< 5.59
same,pIC50,A673,< 5.59
same,pIC50,NCI-H1792,< 5.59
same,pIC50,NCI-H446,< 5.59
same,pIC50,KURAMOCHI,< 5.59
same,pIC50,NCI-H1299,< 5.59
same,pIC50,HCC1806,< 5.59
same,pIC50,A2058,< 5.59
same,pIC50,HCC1954,< 5.59
same,pIC50,COLO-800,< 5.59
same,pIC50,A-375,< 5.59
same,pIC50,LU-134-A,< 5.59
same,pIC50,EW-13,< 5.59
same,pIC50,KY821,< 5.59
same,pIC50,AN3-CA,< 5.59
same,pIC50,ES8,< 5.59
same,pIC50,GT3TKB,< 5.59
same,pIC50,EC-GI-10,< 5.59
same,pIC50,SW780,< 5.59
same,pIC50,CAL-33,< 5.59
same,pIC50,SNU-449,< 5.59
same,pIC50,SJSA-1,< 5.59
same,pIC50,Calu-3,< 5.59
same,pIC50,CAL-39,< 5.59
same,pIC50,TE-5,< 5.59
same,pIC50,MCF7,< 5.59
same,pIC50,SW1573,< 5.59
same,pIC50,697,< 5.59
same,pIC50,SK-N-DZ,< 5.59
same,pIC50,TGBC24TKB,< 5.59
same,pIC50,EOL1,< 5.59
same,pIC50,NCI-H1993,< 5.59
same,pIC50,C3A,< 5.59
same,pIC50,BXPC-3,< 5.59
same,pIC50,HT-1376,< 5.59
same,pIC50,SW684,< 5.59
same,pIC50,CAPAN-1,< 5.59
same,pIC50,HCC2157,< 5.59
C=CCc1cccc(/C=N/NC(=O)CN2CCN(Cc3ccccc3)CC2)c1O [PAC-1],pIC50,LAMA-84,< 5.59
same,pIC50,AM-38,< 5.59
same,pIC50,NCI-H2122,< 5.59
same,pIC50,MKN-28,< 5.59
same,pIC50,DMS-114,< 5.59
same,pIC50,NCI-H2347,< 5.59
same,pIC50,EW-3,< 5.59
same,pIC50,UMC-11,< 5.59
same,pIC50,OVCAR-8,< 5.59
same,pIC50,DoTc2-4510,< 5.59
same,pIC50,KYSE-150 cell line,< 5.59
same,pIC50,SNU-387,< 5.59
same,pIC50,COR-L105,< 5.59
same,pIC50,HuTu80,< 5.59
same,pIC50,A673,< 5.59
same,pIC50,NCI-H1792,< 5.59
same,pIC50,NCI-H446,< 5.59
same,pIC50,KURAMOCHI,< 5.59
same,pIC50,NCI-H1299,< 5.59
same,pIC50,HCC1806,< 5.59
same,pIC50,A2058,< 5.59
same,pIC50,HCC1954,< 5.59
same,pIC50,COLO-800,< 5.59
same,pIC50,A-375,6.06
same,pIC50,LU-134-A,< 5.59
same,pIC50,EW-13,< 5.59
same,pIC50,KY821,< 5.59
same,pIC50,AN3-CA,< 5.59
same,pIC50,ES8,< 5.59
same,pIC50,GT3TKB,< 5.59
same,pIC50,EC-GI-10,< 5.59
same,pIC50,SW780,< 5.59
same,pIC50,CAL-33,< 5.59
same,pIC50,SNU-449,< 5.59
same,pIC50,SJSA-1,5.63
same,pIC50,Calu-3,< 5.59
same,pIC50,CAL-39,< 5.59
same,pIC50,TE-5,< 5.59
same,pIC50,MCF7,< 5.59
same,pIC50,SW1573,< 5.59
same,pIC50,697,6.04
same,pIC50,SK-N-DZ,< 5.59
same,pIC50,TGBC24TKB,< 5.59
same,pIC50,EOL1,< 5.59
same,pIC50,NCI-H1993,< 5.59
same,pIC50,C3A,< 5.59
same,pIC50,BXPC-3,5.68
same,pIC50,HT-1376,< 5.59
same,pIC50,SW684,< 5.59
same,pIC50,CAPAN-1,< 5.59
same,pIC50,HCC2157,< 5.59
